# Experimental data: PMC9697080 (International Journal of Molecular Sciences, 2022)
# Where “and” joins values, the source holds several entries; their conditions need not be identical. Equal values may be shown once.
# Experiments:
# HIV-1 protease [1] = biological target: T1, HIV-1 protease (Human immunodeficiency virus type 1 group M subtype B, UniProt P04585); assay: biochemical; assay type: biochemical; settings: for IC50: IC50 (HIV-1 protease inhibition)
# [2] = tested on: VSV-G-pseudotyped HIV-1 (pHIV-1NL4-3); assay: microbe, parasite or virus in culture; assay type: cell-based; settings: for inhibition at 10 µM: Human immunodeficiency virus 1, SUP-T1, read-out: Inhibition (%) (10 μM), effects on late-stage HIV-1; for EC50: Human immunodeficiency virus 1, read-out: Mean EC50 HIV-1NL4-3
# [3] = Cytotoxicity assay (CCK8 Assay Kit); settings: human
# [4] = tested on: DRV-resistant HIV-1 variant pHIV-1DRV^RS (V32I, L33F, I54M, I84V); assay: microbe, parasite or virus in culture; assay type: cell-based; settings: for EC50: Human immunodeficiency virus 1, read-out: Mean EC50 HIVDRV^Rs
# HIV-1 protease [5] = biological target: T1, HIV-1 protease; assay: biochemical; assay type: binding
# HEK293T cells = assay: Cytotoxicity assay (CCK8 Assay Kit); settings: HEK293T (293T) cells, CCK8, 24 h
# [6] = tested on: influenza virus strain H1N1; parameters: method as in PMID 26077494; settings: read-out: IC50 against influenza H1N1; cited from earlier work
# [7] = tested on: influenza virus strain H5N1; settings: read-out: IC50 against influenza H5N1; cited from earlier work
# [8] = tested on: influenza virus strain H3N2; parameters: method as in PMID 26077494; settings: read-out: IC50 against influenza H3N2; cited from earlier work
# [9] = HEK293T cells, CC50, HEK293T (293T) cells, CCK8, 24 h
Structure (SMILES),IC50 (HIV-1 protease [1]),inhibition at 10 µM [2] [%],"CC50 at 24 h [3, 9] [nM]",also measured
COc1ccc(S(=O)(=O)N(CC(C)C)C[C@@H](O)[C@H](Cc2ccccc2)NC(=O)c2ccccc2O)cc1 [15a],3.34 ± 0.28 nM,98 ± 2,> 100000,–
COc1ccc(S(=O)(=O)N(CC(C)C)C[C@@H](O)[C@H](Cc2ccccc2)NC(=O)c2ccc(Cl)cc2O)cc1 [15b],7.82 ± 0.93 nM,96 ± 3,> 20000,"EC50 [2]: 1400 ± 23 nM; Fold Resistance, EC50 (mutant)/EC50 (WT) [4]: 1.31 fold; EC50 [4]: 1840 ± 39.6 nM; Kd (HIV-1 protease [5]): 7100 nM; CC50 (HEK293T cells): 33900 nM"
COc1ccc(S(=O)(=O)N(CC(C)C)C[C@@H](O)[C@H](Cc2ccccc2)NC(=O)c2ccc(OC)cc2O)cc1 [15c],4.68 ± 0.74 nM,92 ± 5,> 100000,–
COc1ccc(S(=O)(=O)N(CC(C)C)C[C@@H](O)[C@H](Cc2ccccc2)NC(=O)c2ccc(O)c(O)c2)cc1 [15d],0.0059 ± 0.0007 nM,100,> 20000,Effectivity in single-round infection assay compared with DRV [2]: equipotent with DRV; EC50 [2]: 15.4 ± 2.17 nM; EC50 [4]: 402 ± 47.3 nM; CC50 (HEK293T cells): 38200 nM
COc1ccc(S(=O)(=O)N(CC(C)C)C[C@@H](O)[C@H](Cc2ccccc2)NC(=O)c2ccc(O)cc2O)cc1 [15e],0.3 ± 0.08 nM,75 ± 6,78800,–
COc1ccc(S(=O)(=O)N(CC(C)C)C[C@@H](O)[C@H](Cc2ccccc2)NC(=O)c2cc(O)cc(O)c2)cc1 [15f],0.0024 ± 0.0004 nM,100,–,"Enhancement of enzymatic inhibitory activity compared with DRV (HIV-1 protease [1]): over 200 fold; Effectivity in single-round infection assay compared with DRV [2]: equipotent with DRV; EC50 [2]: 28.9 ± 9.21 nM; Fold Resistance, EC50 (mutant)/EC50 (WT) [4]: 1.57 fold; EC50 [4]: 45.5 ± 12.1 nM"
COc1ccc(S(=O)(=O)N(CC(C)C)C[C@@H](O)[C@H](Cc2ccccc2)NC(=O)c2cc(O)c(O)c(O)c2)cc1 [15g],1.13 ± 0.23 nM,99 ± 1,> 100000,–
COc1ccc(S(=O)(=O)N(CC(C)C)C[C@@H](O)[C@H](Cc2ccccc2)NC(=O)c2cc(OC)c(O)c(OC)c2)cc1 [15h],0.08 ± 0.03 nM,99 ± 2,84700,–
COc1ccc(S(=O)(=O)N(CC(C)C)C[C@@H](O)[C@H](Cc2ccccc2)NC(=O)c2cc(OC)c(OC)cc2O)cc1 [15i],1.41 ± 0.43 nM,–,> 100000,–
CC(C)CN(C[C@@H](O)[C@H](Cc1ccccc1)NC(=O)c1ccccc1O)S(=O)(=O)c1ccc(N)cc1 [16a],0.54 ± 0.11 nM,100,> 100000,Effectivity in single-round infection assay compared with DRV [2]: equipotent with DRV
CC(C)CN(C[C@@H](O)[C@H](Cc1ccccc1)NC(=O)c1ccc(Cl)cc1O)S(=O)(=O)c1ccc(N)cc1 [16b],0.31 ± 0.08 nM,98 ± 2,> 100000,–
COc1ccc(C(=O)N[C@@H](Cc2ccccc2)[C@H](O)CN(CC(C)C)S(=O)(=O)c2ccc(N)cc2)c(O)c1 [16c],4.14 ± 1.38 nM,90 ± 6,> 100000,–
CC(C)CN(C[C@@H](O)[C@H](Cc1ccccc1)NC(=O)c1ccc(O)c(O)c1)S(=O)(=O)c1ccc(N)cc1 [16d],1.63 ± 0.33 nM,100,> 100000,Effectivity in single-round infection assay compared with DRV [2]: equipotent with DRV
CC(C)CN(C[C@@H](O)[C@H](Cc1ccccc1)NC(=O)c1ccc(O)cc1O)S(=O)(=O)c1ccc(N)cc1 [16e],0.43 ± 0.08 nM,75 ± 8,> 100000,–
CC(C)CN(C[C@@H](O)[C@H](Cc1ccccc1)NC(=O)c1cc(O)cc(O)c1)S(=O)(=O)c1ccc(N)cc1 [16f],0.27 ± 0.03 nM,99 ± 2,> 100000,–
CC(C)CN(C[C@@H](O)[C@H](Cc1ccccc1)NC(=O)c1cc(O)c(O)c(O)c1)S(=O)(=O)c1ccc(N)cc1 [16g],68 nM and 68.2 nM,55 ± 6,57600,–
COc1cc(C(=O)N[C@@H](Cc2ccccc2)[C@H](O)CN(CC(C)C)S(=O)(=O)c2ccc(N)cc2)cc(OC)c1O [16h],0.04 ± 0.003 nM,99 ± 3,> 100000,–
COc1cc(O)c(C(=O)N[C@@H](Cc2ccccc2)[C@H](O)CN(CC(C)C)S(=O)(=O)c2ccc(N)cc2)cc1OC [16i],0.6 ± 0.18 nM,–,> 100000,–
CSc1ccc(S(=O)(=O)N(CC(C)C)C[C@@H](O)[C@H](Cc2ccccc2)NC(=O)c2ccccc2O)cc1 [17a],3.97 ± 0.41 nM,–,> 100000,–
CSc1ccc(S(=O)(=O)N(CC(C)C)C[C@@H](O)[C@H](Cc2ccccc2)NC(=O)c2ccc(Cl)cc2O)cc1 [17b],2.79 ± 0.44 nM,–,> 100000,–
COc1ccc(C(=O)N[C@@H](Cc2ccccc2)[C@H](O)CN(CC(C)C)S(=O)(=O)c2ccc(SC)cc2)c(O)c1 [17c],8.21 ± 1.2 nM,–,> 100000,–
CSc1ccc(S(=O)(=O)N(CC(C)C)C[C@@H](O)[C@H](Cc2ccccc2)NC(=O)c2ccc(O)c(O)c2)cc1 [17d],0.0076 ± 0.0029 nM,100,> 100000,Effectivity in single-round infection assay compared with DRV [2]: equipotent with DRV
CSc1ccc(S(=O)(=O)N(CC(C)C)C[C@@H](O)[C@H](Cc2ccccc2)NC(=O)c2ccc(O)cc2O)cc1 [17e],0.4 ± 0.08 nM,–,> 100000,–
CSc1ccc(S(=O)(=O)N(CC(C)C)C[C@@H](O)[C@H](Cc2ccccc2)NC(=O)c2cc(O)cc(O)c2)cc1 [17f],0.0066 ± 0.0021 nM,100,> 100000,Effectivity in single-round infection assay compared with DRV [2]: equipotent with DRV
COc1cc(C(=O)N[C@@H](Cc2ccccc2)[C@H](O)CN(CC(C)C)S(=O)(=O)c2ccc(SC)cc2)cc(OC)c1O [17h],0.32 ± 0.03 nM,–,> 100000,–
COc1cc(O)c(C(=O)N[C@@H](Cc2ccccc2)[C@H](O)CN(CC(C)C)S(=O)(=O)c2ccc(SC)cc2)cc1OC [17i],4.71 ± 0.18 nM,–,> 100000,–
"CC(C)CN(C[C@@H](O)[C@H](Cc1ccccc1)NC(=O)O[C@H]1CO[C@H]2OCC[C@H]21)S(=O)(=O)c1ccc(N)cc1 [DRV, Darunavir, reference compound]",–,100,–,EC50 [2]: 1.8 ± 0.73 nM; EC50 [4]: 136.8 ± 1.12 nM; CC50 at 24 h [3]: > 100000 nM
O=c1oc2cc(/C=C/c3ccc(O)c(O)c3)oc(=O)c2c2cc(O)c(O)cc12 [Phelligridin D],–,–,–,IC50 [6]: 8800 nM; IC50 [7]: 10900 nM; IC50 [8]: 10300 nM
